Laboratory results as given in patent EP2695891B1, “OCTAPEPTIDE, RADIOPHARMACEUTICAL AGENT BASED THEREON AND METHOD FOR DIAGNOSING TUMORS” (Aktsionernoe Obschestvo "Pharm-Sintez", priority 2011, dated 2018).
Like-named read-outs stand apart in the source and are kept apart here.

Key:
[1] = potency distribution in mice with tangled B16 melanoma after IV administration (direct radiometry of organs and tissues); conditions: female, F1 CBAxC57B1 hybrids, mouse, tumour and muscle, iv, total radioactivity
Description: (§1) In vivo experiments were conducted using laboratory female mice (F1 CBAxC57B1 hybrids, 18-20g). The animals were obtained from the brooder of the Biomedical Technology Research Centre at the Russian Academy of Medical Sciences in Andreevka. Pigmented B16 mice melanoma was tangled. B16 melanoma cells suspension was administered SC in aseptic conditions. Tumour growth was investigated visually. The animals were enrolled into the experiment 9-12 days after the inoculation, when the tumour diameter was 8-12cm.
(§2) During the experiment the animals were housed in standard conditions (special room, recommended food, free access to fresh water, natural lighting).
(§3) Urinary bladder filling was achieved by suturing the outer urethral orifice. The radioactivity in the sampled organs and tissues was measured by the direct radiometry method. 5 experiments were conducted, at least 3 animals were used for each experimental point.

B16 melanoma [2] = assay: as above; conditions: for Urinary bladder: full urinary bladder; for Blood: mice with B16 melanoma
Description: as §1, §2, §3

B16 melanoma [3] = conditions: mouse, in vivo
Description: as §1, §2, §3

in vivo = conditions: female, F1 CBAxC57B1 hybrids, mouse, iv, total radioactivity
Description: as §1, §2, §3

Row | Structure (SMILES) | Kidneys (B16 melanoma [2]; 30 min after IV administration) | Liver (B16 melanoma [2]; 30 min after IV administration) | Muscle (B16 melanoma [2]; 30 min after IV administration) [%/g] | Tumour (B16 melanoma [2]; 30 min after IV administration) [%/g] | Blood (B16 melanoma [2]; 30 min after IV administration) | Kidneys (B16 melanoma [2]; 60 min after IV administration) | Liver (B16 melanoma [2]; 60 min after IV administration) | Muscle (B16 melanoma [2]; 60 min after IV administration) [%/g] | Tumour (B16 melanoma [2]; 60 min after IV administration) [%/g] | Blood (B16 melanoma [2]; 60 min after IV administration) | also measured
1 | C[C@@H](O)[C@H](NC(=O)[C@@H]1CSSC[C@H](NC(=O)[C@@H](N)CCCCNC(=O)CN2CCN(CC(=O)O)CCN(CC(=O)O)CCN(CC(=O)O)CC2)C(=O)N[C@@H](Cc2ccc(O)cc2)C(=O)N[C@H](Cc2c[nH]c3ccccc23)C(=O)N[C@@H](CCCCN)C(=O)N[C@@H]([C@@H](C)O)C(=O)N1)C(=O)O [1b, marked ^68Ga, metal not drawn] | 3.4 ± 0.3 % of the administered dose | 1.8 ± 0.7 % of the administered dose | 0.6 ± 0.1 | 2.5 ± 0.7 | 2.4 ± 0.4 % of the administered dose | 5.4 ± 0.6 % of the administered dose | 1.1 ± 0.1 % of the administered dose | 0.06 ± 0.01 | 1.2 ± 0.2 | 0.5 ± 0.07 % of the administered dose | tissue to tissue ratio at 0.5 h [1]: 4.2; Urinary bladder (B16 melanoma [2]; 30 min after IV administration): 53.4 ± 7.7 % of the administered dose; Urinary bladder (B16 melanoma [2]; 60 min after IV administration): 35.5 ± 3.1 % of the administered dose
2 | C[C@@H](O)[C@H](NC(=O)[C@@H]1CSSC[C@H](NC(=O)[C@H](CCCCN)NC(=O)CN2CCN(CC(=O)O)CCN(CC(=O)O)CCN(CC(=O)O)CC2)C(=O)N[C@@H](Cc2ccc(O)cc2)C(=O)N[C@H](Cc2c[nH]c3ccccc23)C(=O)N[C@@H](CCCCN)C(=O)N[C@@H]([C@@H](C)O)C(=O)N1)C(=O)O [Compound 1a] |  |  |  |  |  |  |  |  |  |  | accumulation in tumour as compared to ^68Ga-marked DE (B16 melanoma [3]): larger; blood clearance as compared to ^68Ga-marked DE (B16 melanoma [3]): faster blood clearance; renal clearance as compared to ^68Ga-marked DE (B16 melanoma [3]): faster renal clearance; tissue to tissue ratio at 1 h (in vivo): 7.5
3 | C[C@@H](O)[C@H](NC(=O)[C@@H]1CSSC[C@H](NC(=O)[C@H](CCCCN)NC(=O)CN2CCN(CC(=O)O)CCN(CC(=O)O)CCN(CC(=O)O)CC2)C(=O)N[C@@H](Cc2ccc(O)cc2)C(=O)N[C@H](Cc2c[nH]c3ccccc23)C(=O)N[C@@H](CCCCN)C(=O)N[C@@H]([C@@H](C)O)C(=O)N1)C(=O)O [1a, marked ^68Ga, metal not drawn] |  |  |  |  |  |  |  |  |  |  | tissue to tissue ratio at 0.5 h (in vivo): 2.4
4 | C[C@@H](O)[C@H](NC(=O)[C@@H]1CSSC[C@H](NC(=O)[C@@H](Cc2ccccc2)NC(=O)CN2CCN(CC(=O)O)CCN(CC(=O)O)CCN(CC(=O)O)CC2)C(=O)N[C@@H](Cc2ccc(O)cc2)C(=O)N[C@H](Cc2c[nH]c3ccccc23)C(=O)N[C@@H](CCCCN)C(=O)N[C@@H]([C@@H](C)O)C(=O)N1)C(=O)O [DE, marked ^68Ga, metal not drawn, reference compound] | 1.6 ± 0.6 % of the administered dose | 2.8 ± 1.5 % of the administered dose | 0.6 ± 0.04 | 1.0 ± 0.2 | 2.6 ± 0.5 % of the administered dose | 1.6 ± 0.6 % of the administered dose | 2.8 ± 0.5 % of the administered dose | 0.5 ± 0.04 | 0.5 ± 0.24 | 2.6 ± 0.6 % of the administered dose | 
5 | C[C@@H](O)[C@H](NC(=O)[C@@H]1CSSC[C@H](NC(=O)[C@@H](N)CCCCNC(=O)CN2CCN(CC(=O)O)CCN(CC(=O)O)CCN(CC(=O)O)CC2)C(=O)N[C@@H](Cc2ccc(O)cc2)C(=O)N[C@H](Cc2c[nH]c3ccccc23)C(=O)N[C@@H](CCCCN)C(=O)N[C@@H]([C@@H](C)O)C(=O)N1)C(=O)O [Compound 1b] |  |  |  |  |  |  |  |  |  |  | tissue to tissue ratio at 1 h [1]: 20; accumulation in tumour as compared to ^68Ga-marked comparison substance (B16 melanoma [2]; 60 min after administration, fold higher than DE): 2.4 times; accumulation in tumour as compared to ^68Ga-marked DE (B16 melanoma [2]; ^68Ga-marked, in words): larger; blood clearance as compared to ^68Ga-marked DE (B16 melanoma [2]; ^68Ga-marked, in words): faster blood clearance; renal clearance as compared to ^68Ga-marked DE (B16 melanoma [2]; ^68Ga-marked, in words): faster renal clearance; ratio of accumulation in tumour and muscle as compared to DE (B16 melanoma [2]; both in 30 and in 60 minutes after administration, in words): higher
